{"source": "patent US8680052B1", "about": "“Methods of treating, reducing the incidence of, and/or preventing ischemic events” (The Medicines Company, priority 2013, dated 2014)", "test_system": "patients with acute coronary syndromes undergoing PCI", "details": "30 days; for All-cause mortality OR (95% CI) / IDR OR (95% CI) / MI OR (95% CI) / Mortality/MI/IDR OR (95% CI) / Mortality/Q-wave MI/IDR OR (95% CI) / Mortality/Q-wave MI/Stent thrombosis OR (95% CI) / Stent thrombosis OR (95% CI) / Q-wave MI OR (95% CI): Cangrelor vs Clopidogrel", "note": "Where two headings read alike, the source gives them in different places."}
{"smiles": "CSCCNc1nc(SCCC(F)(F)F)nc2c1ncn2[C@@H]1O[C@H](COP(=O)(O)OP(=O)(O)C(Cl)(Cl)P(=O)(O)O)[C@@H](O)[C@H]1O", "note": "[Cangrelor, cangrelor]", "values": [{"measurement": "Stent thrombosis", "setting": "ITT", "result": "27 (0.6) no. (%)"}, {"measurement": "All-cause mortality", "setting": "ITT With STEMI", "result": "8 (1.7) no. (%)"}, {"measurement": "IDR", "setting": "ITT With STEMI", "result": "16 (3.4) no. (%)"}, {"measurement": "MI", "setting": "ITT With STEMI", "result": "20 (4.2) no. (%)"}, {"measurement": "Mortality/MI/IDR", "setting": "ITT With STEMI", "result": "36 (7.6) no. (%)"}, {"measurement": "Mortality/Q-wave MI/IDR", "setting": "ITT With STEMI", "result": "23 (4.9) no. (%)"}, {"measurement": "Mortality/Q-wave MI/Stent thrombosis", "setting": "ITT With STEMI", "result": "14 (3.0) no. (%)"}, {"measurement": "Q-wave MI", "setting": "ITT With STEMI", "result": "2 (0.4) no. (%)"}, {"measurement": "Stent thrombosis", "setting": "ITT With STEMI", "result": "7 (1.5) no. (%)"}, {"measurement": "All-cause mortality OR (95% CI)", "setting": "ITT With STEMI", "result": "0.524 (0.222, 1.235)"}, {"measurement": "IDR OR (95% CI)", "setting": "ITT With STEMI", "result": "1.139 (0.557, 2.331)"}, {"measurement": "MI OR (95% CI)", "setting": "ITT With STEMI", "result": "1.263 (0.653, 2.441)"}, {"measurement": "Mortality/MI/IDR OR (95% CI)", "setting": "ITT With STEMI", "result": "0.929 (0.582, 1.480)"}, {"measurement": "Mortality/Q-wave MI/IDR OR (95% CI)", "setting": "ITT With STEMI", "result": "0.778 (0.447, 1.355)"}, {"measurement": "Mortality/Q-wave MI/Stent thrombosis OR (95% CI)", "setting": "ITT With STEMI", "result": "0.560 (0.289, 1.085)"}, {"measurement": "Stent thrombosis OR (95% CI)", "setting": "ITT With STEMI", "result": "0.741 (0.280, 1.962)"}, {"measurement": "All-cause mortality", "setting": "ITT Without STEMI", "result": "32 (0.8) no. (%)"}, {"measurement": "IDR", "setting": "ITT Without STEMI", "result": "46 (1.2) no. (%)"}, {"measurement": "MI", "setting": "ITT Without STEMI", "result": "298 (7.6) no. (%)"}, {"measurement": "Mortality/MI/IDR", "setting": "ITT Without STEMI", "result": "345 (8.8) no. (%)"}, {"measurement": "Mortality/Q-wave MI/IDR", "setting": "ITT Without STEMI", "result": "79 (2.0) no. (%)"}, {"measurement": "Mortality/Q-wave MI/Stent thrombosis", "setting": "ITT Without STEMI", "result": "54 (1.4) no. (%)"}, {"measurement": "Q-wave MI", "setting": "ITT Without STEMI", "result": "7 (0.2) no. (%)"}, {"measurement": "Stent thrombosis", "setting": "ITT Without STEMI", "result": "20 (0.5) no. (%)"}, {"measurement": "All-cause mortality OR (95% CI)", "setting": "ITT Without STEMI", "result": "1.027 (0.626, 1.687)"}, {"measurement": "IDR OR (95% CI)", "setting": "ITT Without STEMI", "result": "0.846 (0.569, 1.257)"}, {"measurement": "MI OR (95% CI)", "setting": "ITT Without STEMI", "result": "1.081 (0.912, 1.281)"}, {"measurement": "Mortality/MI/IDR OR (95% CI)", "setting": "ITT Without STEMI", "result": "1.037 (0.886, 1.215)"}, {"measurement": "Mortality/Q-wave MI/IDR OR (95% CI)", "setting": "ITT Without STEMI", "result": "0.891 (0.656, 1.211)"}, {"measurement": "Mortality/Q-wave MI/Stent thrombosis OR (95% CI)", "setting": "ITT Without STEMI", "result": "0.959 (0.658, 1.397)"}, {"measurement": "Q-wave MI OR (95% CI)", "setting": "ITT Without STEMI", "result": "0.463 (0.189, 1.138)"}, {"measurement": "Stent thrombosis OR (95% CI)", "setting": "ITT Without STEMI", "result": "0.995 (0.535, 1.852)"}, {"measurement": "All-cause mortality OR (95% CI)", "setting": "ITT", "result": "0.852 (0.558, 1.301)"}, {"measurement": "IDR OR (95% CI)", "setting": "ITT", "result": "0.899 (0.637, 1.271)"}, {"measurement": "MI OR (95% CI)", "setting": "ITT", "result": "1.095 (0.929, 1.291)"}, {"measurement": "Mortality/MI/IDR OR (95% CI)", "setting": "ITT", "result": "1.026 (0.884, 1.192)"}, {"measurement": "Mortality/Q-wave MI/IDR OR (95% CI)", "setting": "ITT", "result": "0.856 (0.655, 1.119)"}, {"measurement": "Mortality/Q-wave MI/Stent thrombosis OR (95% CI)", "setting": "ITT", "result": "0.829 (0.599, 1.146)"}, {"measurement": "Q-wave MI OR (95% CI)", "setting": "ITT", "result": "0.601 (0.263, 1.374)"}, {"measurement": "Stent thrombosis OR (95% CI)", "setting": "ITT", "result": "0.902 (0.535, 1.519)"}, {"measurement": "All-cause mortality", "setting": "MITT", "result": "40 (0.9) no. (%)"}, {"measurement": "IDR", "setting": "MITT", "result": "60 (1.4) no. (%)"}, {"measurement": "MI", "setting": "MITT", "result": "315 (7.3) no. (%)"}, {"measurement": "Mortality/MI/IDR", "setting": "MITT", "result": "376 (8.7) no. (%)"}, {"measurement": "Mortality/Q-wave MI/IDR", "setting": "MITT", "result": "100 (2.3) no. (%)"}, {"measurement": "Mortality/Q-wave MI/Stent thrombosis", "setting": "MITT", "result": "68 (1.6) no. (%)"}, {"measurement": "Q-wave MI", "setting": "MITT", "result": "9 (0.2) no. (%)"}, {"measurement": "Stent thrombosis", "setting": "MITT", "result": "27 (0.6) no. (%)"}, {"measurement": "All-cause mortality", "setting": "MITT With STEMI", "result": "8 (1.8) no. (%)"}, {"measurement": "IDR", "setting": "MITT With STEMI", "result": "16 (3.7) no. (%)"}, {"measurement": "MI", "setting": "MITT With STEMI", "result": "18 (4.1) no. (%)"}, {"measurement": "Mortality/MI/IDR", "setting": "MITT With STEMI", "result": "34 (7.8) no. (%)"}, {"measurement": "Mortality/Q-wave MI/IDR", "setting": "MITT With STEMI", "result": "23 (5.3) no. (%)"}, {"measurement": "Mortality/Q-wave MI/Stent thrombosis", "setting": "MITT With STEMI", "result": "14 (3.2) no. (%)"}, {"measurement": "Q-wave MI", "setting": "MITT With STEMI", "result": "2 (0.5) no. (%)"}, {"measurement": "Stent thrombosis", "setting": "MITT With STEMI", "result": "7 (1.6) no. (%)"}, {"measurement": "All-cause mortality OR (95% CI)", "setting": "MITT With STEMI", "result": "0.732 (0.292, 1.838)"}, {"measurement": "IDR OR (95% CI)", "setting": "MITT With STEMI", "result": "1.165 (0.561, 2.416)"}, {"measurement": "MI OR (95% CI)", "setting": "MITT With STEMI", "result": "1.146 (0.577, 2.278)"}, {"measurement": "Mortality/MI/IDR OR (95% CI)", "setting": "MITT With STEMI", "result": "1.015 (0.619, 1.665)"}, {"measurement": "Mortality/Q-wave MI/IDR OR (95% CI)", "setting": "MITT With STEMI", "result": "0.929 (0.519, 1.663)"}, {"measurement": "Mortality/Q-wave MI/Stent thrombosis OR (95% CI)", "setting": "MITT With STEMI", "result": "0.665 (0.334, 1.325)"}, {"measurement": "Stent thrombosis OR (95% CI)", "setting": "MITT With STEMI", "result": "0.705 (0.266, 1.869)"}, {"measurement": "All-cause mortality", "setting": "MITT Without STEMI", "result": "32 (0.8) no. (%)"}, {"measurement": "IDR", "setting": "MITT Without STEMI", "result": "44 (1.1) no. (%)"}, {"measurement": "MI", "setting": "MITT Without STEMI", "result": "297 (7.7) no. (%)"}, {"measurement": "Mortality/MI/IDR", "setting": "MITT Without STEMI", "result": "342 (8.9) no. (%)"}, {"measurement": "Mortality/Q-wave MI/IDR", "setting": "MITT Without STEMI", "result": "77 (2.0) no. (%)"}, {"measurement": "Mortality/Q-wave MI/Stent thrombosis", "setting": "MITT Without STEMI", "result": "54 (1.4) no. (%)"}]}
